Laboratory results: ChEMBL document CHEMBL1137274, “Discovery and synthesis of tetrahydroindolone-derived carbamates as Kv1.5 blockers” (Bioorg Med Chem Lett, 2006)

Assays:
[1] = molecular target: T1, Potassium voltage-gated channel subfamily A member 5 (Homo sapiens, UniProt P22460); experiment: Inhibition of Kv1.5 expressed in LTK- cells by whole cell patch clamp assay at 1uM; type: functional, cell-based
[2] = molecular target: T1, Potassium voltage-gated channel subfamily A member 5; experiment: Inhibition of Kv1.5 expressed in LTK- cells by whole cell patch clamp assay; type: functional, cell-based
[3] = molecular target: Voltage-gated inwardly rectifying potassium channel KCNH2 (Homo sapiens, UniProt Q12809); experiment: Inhibition of hERG expressed in HEK cells by whole cell patch clamp assay; type: toxicity, cell-based, HEK293
[4] = organism: Homo sapiens; experiment: Selectivity for Kv1.5 compared to hERG; type: functional
[5] = organism: Homo sapiens; experiment: Selectivity for Kv1.5 compared to L-type calcium channel; type: functional
[6] = molecular target: Voltage-gated L-type calcium channel (Homo sapiens, UniProt Q13936+Q13698+Q01668+O60840); experiment: Inhibition of L-type calcium channel by FLIPR assay; type: functional

T1 sequence (P22460 whole entry): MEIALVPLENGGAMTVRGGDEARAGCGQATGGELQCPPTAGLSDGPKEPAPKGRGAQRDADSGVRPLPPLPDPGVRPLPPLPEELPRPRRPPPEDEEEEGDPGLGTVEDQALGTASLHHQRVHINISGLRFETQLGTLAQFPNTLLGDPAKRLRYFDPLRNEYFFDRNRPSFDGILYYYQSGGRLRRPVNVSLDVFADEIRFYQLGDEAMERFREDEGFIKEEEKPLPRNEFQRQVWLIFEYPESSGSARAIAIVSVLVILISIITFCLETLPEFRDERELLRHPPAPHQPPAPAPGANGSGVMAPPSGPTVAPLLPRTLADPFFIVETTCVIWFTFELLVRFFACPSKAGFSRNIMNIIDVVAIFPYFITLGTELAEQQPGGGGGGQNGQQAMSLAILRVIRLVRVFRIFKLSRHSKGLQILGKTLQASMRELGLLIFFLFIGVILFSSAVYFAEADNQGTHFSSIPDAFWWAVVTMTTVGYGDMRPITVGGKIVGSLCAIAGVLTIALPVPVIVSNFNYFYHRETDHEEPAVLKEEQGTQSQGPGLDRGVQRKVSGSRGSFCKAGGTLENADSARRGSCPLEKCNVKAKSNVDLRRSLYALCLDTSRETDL
Voltage-gated inwardly rectifying potassium channel KCNH2, sequence (Q12809 whole entry): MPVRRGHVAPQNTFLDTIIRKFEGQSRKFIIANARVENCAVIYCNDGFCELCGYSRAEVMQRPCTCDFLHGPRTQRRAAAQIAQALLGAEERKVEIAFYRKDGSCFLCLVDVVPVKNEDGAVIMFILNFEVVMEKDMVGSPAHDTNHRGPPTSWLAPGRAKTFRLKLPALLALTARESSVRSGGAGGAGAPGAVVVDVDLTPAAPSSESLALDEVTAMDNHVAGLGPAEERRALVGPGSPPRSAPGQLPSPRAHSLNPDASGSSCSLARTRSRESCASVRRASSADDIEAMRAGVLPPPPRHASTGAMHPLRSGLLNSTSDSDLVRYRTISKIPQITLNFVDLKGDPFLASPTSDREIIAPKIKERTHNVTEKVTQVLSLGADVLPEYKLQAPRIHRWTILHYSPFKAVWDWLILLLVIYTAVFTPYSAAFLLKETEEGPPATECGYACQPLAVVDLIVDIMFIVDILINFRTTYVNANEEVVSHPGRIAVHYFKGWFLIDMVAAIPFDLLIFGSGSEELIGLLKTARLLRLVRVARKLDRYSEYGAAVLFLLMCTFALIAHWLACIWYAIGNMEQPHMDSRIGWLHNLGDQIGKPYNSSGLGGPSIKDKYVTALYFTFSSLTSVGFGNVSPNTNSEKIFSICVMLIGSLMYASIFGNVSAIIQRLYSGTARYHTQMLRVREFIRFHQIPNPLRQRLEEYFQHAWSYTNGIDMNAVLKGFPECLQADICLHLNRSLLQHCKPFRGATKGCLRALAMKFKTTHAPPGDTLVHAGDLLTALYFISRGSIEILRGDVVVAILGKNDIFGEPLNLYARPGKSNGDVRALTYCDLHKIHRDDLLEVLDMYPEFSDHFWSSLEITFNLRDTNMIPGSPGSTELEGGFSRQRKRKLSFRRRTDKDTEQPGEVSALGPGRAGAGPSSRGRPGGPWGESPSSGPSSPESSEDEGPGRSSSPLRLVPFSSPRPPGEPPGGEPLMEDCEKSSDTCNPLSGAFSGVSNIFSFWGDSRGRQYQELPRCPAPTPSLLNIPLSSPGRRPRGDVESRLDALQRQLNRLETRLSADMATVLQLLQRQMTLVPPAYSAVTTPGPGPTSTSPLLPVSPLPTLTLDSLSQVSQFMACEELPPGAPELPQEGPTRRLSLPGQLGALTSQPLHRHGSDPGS

Compound | inhibition [1] | other results
CCc1c(C)[nH]c2c1/C(=N/OC(=O)NCCc1ccccc1)CCC2 | 76% | 
CCc1c2c(n(CC)c1C)CCC/C2=N\OC(=O)Nc1ccccc1 | 35% | 
CCc1c(C)[nH]c2c1/C(=N/OC(=O)Nc1ccc(SC)cc1)CCC2 | 90% | IC50 [2]: 350 nM
CCc1c2c(n(C)c1CC)CCC/C2=N\OC(=O)Nc1ccccc1 | 99% | IC50 [3]: > 30000 nM; Ratio [4]: > 450; Ratio [5]: > 450; IC50 [2]: 21 nM; IC50 [6]: 20000 nM
CC(=O)c1ccc(NC(=O)O/N=C2\CCCc3c2c(C(C)C)c(C)n3C)cc1 | 96% | 
CCc1c(C)[nH]c2c1/C(=N/OC(=O)Nc1ccc(C)cc1)CCC2 | 85% | 
CCc1c(C)[nH]c2c1/C(=N/OC(=O)Nc1ccccc1)CCC2 | 91% | IC50 [3]: > 30000 nM; Ratio [4]: > 450; Ratio [5]: > 450; IC50 [2]: 67 nM; IC50 [6]: > 30000 nM
CCc1c(C)[nH]c2c1/C(=N/OC(=O)NCc1ccccc1)CCC2 | 70% | 
CCc1c(C)[nH]c2c1/C(=N/OC(=O)Nc1ccc(OC)cc1)CCC2 | 90% | 
CCc1c(C)[nH]c2c1/C(=N/OC(=O)NCCc1cccnc1)CCC2 | 25% | 
CCc1c(C)[nH]c2c1/C(=N/OC(=O)NCCc1ccncc1)CCC2 | 20% | 
Cc1[nH]c2c(c1C)/C(=N/OC(=O)Nc1ccc(Cl)cc1)CCC2 | 78% | 
CC(=O)c1ccc(NC(=O)O/N=C2\CCCC3=C2C2CCCC2N3)cc1 (stereo unspecified) | 79% | 
CCc1c(C)[nH]c2c1/C(=N/OC(=O)Nc1ccc(F)cc1)CCC2 | 90% | IC50 [2]: 275 nM
CCc1c(C)[nH]c2c1/C(=N/OC(=O)Nc1ccc(Cl)cc1)CCC2 | 91% | 
CCc1c2c(n(C)c1C)CCC/C2=N\OC(=O)Nc1ccccc1 | 77% | 

Compound | inhibition [1] | other results
CCc1c(C)[nH]c2c1/C(=N/OC(=O)Nc1ccc(C(C)=O)cc1)CCC2 | 91% | 
CCc1c2c(n(CC)c1C)CCC/C2=N\OC(=O)Nc1ccc(C(C)=O)cc1 | 71% | 
O=C(Nc1ccc(Cl)cc1)O/N=C1\CCCC2=C1C1CCCC1N2 (stereo unspecified) | 58% | 
CCc1[nH]c2c(c1CC)/C(=N/OC(=O)Nc1ccc(Cl)cc1)CCC2 | 87% | 
CCc1c(C)[nH]c2c1/C(=N/OC(=O)Nc1ccccc1SC)CCC2 | 41% | 
CCc1c(C)[nH]c2c1/C(=N/OC(=O)Nc1cccc(SC)c1)CCC2 | 73% | 
CCc1c2c(n(C)c1C)CCC/C2=N\OC(=O)Nc1ccc(C(C)=O)cc1 | 96% | IC50 [2]: 368 nM
CC(=O)c1ccc(NC(=O)O/N=C2\CCCc3[nH]c(C)c(C)c32)cc1 | 60% | 
Cc1[nH]c2c(c1C)/C(=N/OC(=O)Nc1ccccc1)CCC2 | 57% | 
CCc1c(C)[nH]c2c1/C(=N/OC(=O)Nc1ccc(C(C)(C)C)cc1)CCC2 | 6% | 
CCc1c(C)[nH]c2c1/C(=N/OC(=O)NCCc1ccccn1)CCC2 | 91% | IC50 [2]: 547 nM
CCc1c2c(n(C)c1CC)CCC/C2=N\OC(=O)Nc1ccc(C(C)=O)cc1 | 92% | 
CCc1c(C)[nH]c2c1/C(=N/OC(=O)Nc1ccc(C(C)C)cc1)CCC2 | 51% | 
CCc1c(C)[nH]c2c1/C(=N/OC(=O)Nc1ccc(C#N)cc1)CCC2 | 95% | 
O=C(Nc1ccccc1)O/N=C1\CCCC2=C1C1CCCC1N2 (stereo unspecified) | 79% | 
CCc1[nH]c2c(c1CC)/C(=N/OC(=O)Nc1ccccc1)CCC2 | 84% | 
